Source: patent US20140107100A1, “Benzoxazepines as Inhibitors of PI3K/mTOR and Methods of Their Use and Manufacture” (EXELIXIS, INC., priority 2010, published 2014)
pIC50: −log10 of the molar value.

Target: mTOR/GbL/Raptor (mTORC1) (Homo sapiens, UniProt P42345)
Test: mTOR/GbL/Raptor (mTORC1) ELISA assay, phosphorylation of 4E-BP1
Type: biochemical
Conditions: 0.2 nM mTORC1, 40 uM ATP, 50 nM NHis-tagged 4E-BP1, 120 minutes; read-out: IC50 in this assay (mTORC1 ELISA)
In short: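 Phospho-4E-BP1 was quantified by luminescent ELISA (anti-phospho-4E-BP1 IgG, HRP-tagged secondary) after capture of the His-tagged substrate on Ni-chelate plates.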

Row | pIC50 | Compound
1 | ≥ 7.00 | Cc1cc(-c2cnc3sc(N)nc3c2)cc2c1OCCN(c1nc(C(F)F)nc(C)c1C(C)C)C2 [Compound 144, 6-{4-[2-(difluoromethyl)-6-methyl-5-(1-methylethyl)pyrimidin-4-yl]-9-methyl-2,3,4,5-tetrahydro-1,4-benzoxazepin-7-yl}[1,3]thiazolo[5,4-b]pyridin-2-amine]
2 | ≥ 7.00 | C#Cc1c(C)nc(N)nc1N1CCOc2c(C)cc(-c3cnc4sc(N)nc4c3)cc2C1 [Compound 145, 6-[4-(2-amino-5-ethynyl-6-methylpyrimidin-4-yl)-9-methyl-2,3,4,5-tetrahydro-1,4-benzoxazepin-7-yl][1,3]thiazolo[5,4-b]pyridin-2-amine]
3 | ≥ 7.00 | Cc1cc(-c2cnc3sc(N)nc3c2)cc2c1OCCN(c1nc(C3CCCN3)nc(C)c1C(C)C)C2 (centres unmarked) [Compound 146, 6-{9-methyl-4-[6-methyl-5-(1-methylethyl)-2-pyrrolidin-2-ylpyrimidin-4-yl]-2,3,4,5-tetrahydro-1,4-benzoxazepin-7-yl}[1,3]thiazolo[5,4-b]pyridin-2-amine]
4 | ≥ 7.00 | Cc1cc(-c2cnc3sc(N)nc3c2)cc2c1OCCN(c1nc([C@@H]3CC(F)(F)CN3)nc(C)c1C(C)C)C2 [Compound 147, 6-(4-{2-[(2S)-4,4-difluoropyrrolidin-2-yl]-6-methyl-5-(1-methylethyl)pyrimidin-4-yl}-9-methyl-2,3,4,5-tetrahydro-1,4-benzoxazepin-7-yl)[1,3]thiazolo[5,4-b]pyridin-2-amine]
5 | 6.30 to 7.00 | CNc1ncnc(N2CCOc3c(C)cc(-c4cnc5sc(N)nc5c4)cc3C2)c1[N+](=O)[O-] [Compound 148, 6-{9-methyl-4-[6-(methylamino)-5-nitropyrimidin-4-yl]-2,3,4,5-tetrahydro-1,4-benzoxazepin-7-yl}[1,3]thiazolo[5,4-b]pyridin-2-amine]
6 | ≥ 7.00 | Cc1cc(-c2cnc3sc(N)nc3c2)cc2c1OCCN(c1nc(C3CCCN3C)nc(C)c1C(C)C)C2 (centres unmarked) [Compound 149, 6-{9-methyl-4-[6-methyl-5-(1-methylethyl)-2-(1-methylpyrrolidin-2-yl)pyrimidin-4-yl]-2,3,4,5-tetrahydro-1,4-benzoxazepin-7-yl}[1,3]thiazolo[5,4-b]pyridin-2-amine]
7 | ≥ 7.00 | Cc1cc(-c2cnc3sc(N)nc3c2)cc2c1OCCN(c1nc(C3CC3)nc(C)c1C(C)C)C2 [Compound 150, 6-{4-[2-cyclopropyl-6-methyl-5-(1-methylethyl)pyrimidin-4-yl]-9-methyl-2,3,4,5-tetrahydro-1,4-benzoxazepin-7-yl}[1,3]thiazolo[5,4-b]pyridin-2-amine]
8 | ≥ 7.00 | Cc1cc(-c2cnc3sc(N)nc3c2)cc2c1OCCN(c1nc([C@@H]3C[C@@H](F)CN3)nc(C)c1C(C)C)C2 [Compound 151, 6-(4-{2-[(2S,4R)-4-fluoropyrrolidin-2-yl]-6-methyl-5-(1-methylethyl)pyrimidin-4-yl}-9-methyl-2,3,4,5-tetrahydro-1,4-benzoazepin-7-yl)[1,3]thiazolo[5,4-b]pyridin-2-amine]
9 | ≥ 7.00 | COc1nc(C)c(C(C)C)c(N2CCOc3c(C)cc(-c4cnc5sc(N)nc5c4)cc3C2)n1 [Compound 152, 6-{9-methyl-4-[6-methyl-5-(1-methylethyl)-2-(methyloxy)pyrimidin-4-yl]-2,3,4,5-tetrahydro-1,4-benzoxazepin-7-yl}[1,3]thiazolo[5,4-b]pyridin-2-amine]
10 | ≥ 7.00 | COCC(C)c1c(C)nc(C)nc1N1CCOc2c(C)cc(-c3cnc4sc(N)nc4c3)cc2C1 (centres unmarked) [Compound 153, 6-(4-{2,6-dimethyl-5-[1-methyl-2-(methyloxy)ethyl]pyrimidin-4-yl}-9-methyl-2,3,4,5-tetrahydro-1,4-benzoxazepin-7-yl)[1,3]thiazolo[5,4-b]pyridin-2-amine]
11 | ≥ 7.00 | COCCOc1nc(C)c(C(C)C)c(N2CCOc3c(C)cc(-c4cnc5sc(N)nc5c4)cc3C2)n1 [Compound 154, 6-{9-methyl-4-[6-methyl-5-(1-methylethyl)-2-{[2-(methyloxy)ethyl]oxy}pyrimidin-4-yl]-2,3,4,5-tetrahydro-1,4-benzoxazepin-7-yl}[1,3]thiazolo[5,4-b]pyridin-2-amine]
12 | ≥ 7.00 | COCCc1nc(C)c(C(C)C)c(N2CCOc3c(C)cc(-c4cnc5sc(N)nc5c4)cc3C2)n1 [Compound 155, 6-(9-methyl-4-{6-methyl-5-(1-methylethyl)-2-[2-(methyloxy)ethyl]pyrimidin-4-yl}-2,3,4,5-tetrahydro-1,4-benzoxazepin-7-yl)[1,3]thiazolo[5,4-b]pyridin-2-amine]
13 | ≥ 7.00 | Cc1cc(-c2cnc3sc(N)nc3c2)cc2c1OCCN(c1nc(CN(C)CCF)nc(C)c1C(C)C)C2 [Compound 156, 6-{4-[2-{[(2-fluoroethyl)(methyl)amino]methyl}-6-methyl-5-(1-methylethyl)pyrimidin-4-yl]-9-methyl-2,3,4,5-tetrahydro-1,4-benzoxazepin-7-yl}[1,3]thiazolo[5,4-b]pyridin-2-amine]
14 | 6.30 to 7.00 | COc1cc(-c2cnc3sc(N)nc3c2)cc2c1OCCN(c1nc(CN(C)C)nc(C)c1C(C)C)C2 [Compound 157, 6-[4-{2-[(dimethylamino)methyl]-6-methyl-5-(1-methylethyl)pyrimidin-4-yl}-9-(methyloxy)-2,3,4,5-tetrahydro-1,4-benzoxazepin-7-yl][1,3]thiazolo[5,4-b]pyridin-2-amine]
15 | ≥ 7.00 | CCNCc1nc(C)c(C(C)C)c(N2CCOc3c(C)cc(-c4cnc5sc(N)nc5c4)cc3C2)n1 [Compound 158, 6-(4-{2-[(ethylamino)methyl]-6-methyl-5-(1-methylethyl)pyrimidin-4-yl}-9-methyl-2,3,4,5-tetrahydro-1,4-benzoxazepin-7-yl)[1,3]thiazolo[5,4-b]pyridin-2-amine]
16 | ≥ 7.00 | CCN(CCF)Cc1nc(C)c(C(C)C)c(N2CCOc3c(C)cc(-c4cnc5sc(N)nc5c4)cc3C2)n1 [Compound 159, 6-{4-[2-{[ethyl(2-fluoroethyl)amino]methyl}-6-methyl-5-(1-methylethyl)pyrimidin-4-yl]-9-methyl-2,3,4,5-tetrahydro-1,4-benzoxazepin-7-yl}[1,3]thiazolo[5,4-b]pyridin-2-amine]
17 | ≥ 7.00 | COCCc1nc(C)c(C(C)C)c(N2CCOc3c(C)cc(-c4cnc(Cl)c(NS(C)(=O)=O)c4)cc3C2)n1 [Compound 160, N-[2-chloro-5-(9-methyl-4-{6-methyl-5-(1-methylethyl)-2-[2-(methyloxy)ethyl]pyrimidin-4-yl}-2,3,4,5-tetrahydro-1,4-benzoxazepin-7-yl)pyridin-3-yl]methanesulfonamide]
18 | ≥ 7.00 | Cc1cc(-c2cnc(Cl)c(NS(C)(=O)=O)c2)cc2c1OCCN(c1nc(CNCCF)nc(C)c1C(C)C)C2 [Compound 161, N-(2-chloro-5-{4-[2-{[(2-fluoroethyl)amino]methyl}-6-methyl-5-(1-methylethyl)pyrimidin-4-yl]-9-methyl-2,3,4,5-tetrahydro-1,4-benzoxazepin-7-yl}pyridin-3-yl)methanesulfonamide]
19 | ≥ 7.00 | Cc1nc2cc(-c3cc(C)c4c(c3)CN(c3nc(N)nc(C)c3C(C)C)CCO4)cnc2[nH]1 [Compound 162, 4-methyl-5-(1-methylethyl)-6-[9-methyl-7-(2-methyl-3H-imidazo[4,5-b]pyridin-6-yl)-2,3-dihydro-1,4-benzoxazepin-4(5H)-yl]pyrimidin-2-amine]
20 | ≥ 7.00 | Cc1cc(-c2cnc3nc[nH]c3c2)cc2c1OCCN(c1nc(N)nc(C)c1C(C)C)C2 [Compound 163, 4-[7-(1H-imidazo[4,5-b]pyridin-6-yl)-9-methyl-2,3-dihydro-1,4-benzoxazepin-4(5H)-yl]-6-methyl-5-(1-methylethyl)pyrimidin-2-amine]
21 | ≥ 7.00 | Cc1cc(-c2cnc(Cl)c(NS(C)(=O)=O)c2)cc2c1OCCN(c1nc(CNCC(F)F)nc(C)c1C(C)C)C2 [Compound 164, N-(2-chloro-5-{4-[2-{[(2,2-difluoroethyl)amino]methyl}-6-methyl-5-(1-methylethyl)pyrimidin-4-yl]-9-methyl-2,3,4,5-tetrahydro-1,4-benzoxazepin-7-yl}pyridin-3-yl)methanesulfonamide]
22 | ≥ 7.00 | Cc1cc(-c2cnc3nc[nH]c3c2)cc2c1OCCN(c1nc(CNCC(F)F)nc(C)c1C(C)C)C2 [Compound 165, 2,2-difluoro-N-({4-[7-(1H-imidazo[4,5-b]pyridin-6-yl)-9-methyl-2,3-dihydro-1,4-benzoxazepin-4(5H)-yl]-6-methyl-5-(1-methylethyl)pyrimidin-2-yl}methyl)ethanamine]
23 | ≥ 7.00 | Cc1nc2ncc(-c3cc(C)c4c(c3)CN(c3nc(CNCC(F)F)nc(C)c3C(C)C)CCO4)cc2[nH]1 [Compound 166, 2,2-difluoro-N-({4-methyl-5-(1-methylethyl)-6-[9-methyl-7-(2-methyl-1H-imidazo[4,5-b]pyridin-6-yl)-2,3-dihydro-1,4-benzoxazepin-4(5H)-yl]pyrimidin-2-yl}methyl)ethanamine]
24 | 6.30 to 7.00 | Cc1cc(-c2cnc3nc[nH]c3c2)cc2c1OCCN(c1nc(CN(C)CC(F)F)nc(C)c1C(C)C)C2 [Compound 167, 2,2-difluoro-N-({4-[7-(1H-imidazo[4,5-b]pyridin-6-yl)-9-methyl-2,3-dihydro-1,4-benzoxazepin-4(5H)-yl]-6-methyl-5-(1-methylethyl)pyrimidin-2-yl}methyl)-N-methylethanamine]
25 | ≥ 7.00 | Cc1cc(-c2nnc(N)s2)cc2c1OCCN(c1nc(CN(C)CC(F)F)nc(C)c1C(C)C)C2 [Compound 168, 5-{4-[2-{[(2,2-difluoroethyl)(methyl)amino]methyl}-6-methyl-5-(1-methylethyl)pyrimidin-4-yl]-9-methyl-2,3,4,5-tetrahydro-1,4-benzoxazepin-7-yl}-1,3,4-thiadiazol-2-amine]
26 | ≥ 7.00 | Cc1cc(-c2nnc(N)s2)cc2c1OCCN(c1nc(CNCC(F)F)nc(C)c1C(C)C)C2 [Compound 169, 5-{4-[2-{[(2,2-difluoroethyl)amino]methyl}-6-methyl-5-(1-methylethyl)pyrimidin-4-yl]-9-methyl-2,3,4,5-tetrahydro-1,4-benzoxazepin-7-yl}-1,3,4-thiadiazol-2-amine]
